We go through one sequence from PMC13672995, “NCR13 peptide protects soybean against Cercospora sojina using multi-faceted modes of action and additive interaction with chemical fungicides” (Journal of Experimental Botany, 2025).

The test system of series [1] is soybean cv. Blackhawk plants. To be noted: 48 µM spray. On the procedure: To test the potential phytotoxicity of NCR13_PFV1 spray on soybean plants, 48 µM NCR13_PFV1 or water was first sprayed on 4-week-old soybean cv. Blackhawk plants (2 ml per plant) followed by biweekly sprays at 5 ml per plant until plants were 10 weeks old. When plants reached 12 weeks, photographs were taken for phenotypic analysis and the plants were allowed to mature. Soybean pods were harvested when the plants were all dry and mature, and the number of pods, 100 seed weight, and total seed weight were determined. At least four plants per treatment were tested.

The test system of series [2] is fungicide-sensitive and -resistant isolates of C. sojina. The experiment in a line: In vitro antifungal activity assay (MIC stated across isolates). The format is cell-based, Cercospora sojina. To be noted: range over Cs320 and Cs350; 48 h. The procedure:
In vitro antifungal activity of AFPs and QoI fungicides was determined using 96-well plate assays as described ([Velivelli et al., 2020]) with slight modifications. Briefly, 2- to 3-week-old C. sojina was used to make a conidial suspension in 2× SFM at the final concentration of ∼10^5 conidia ml^−1. Simultaneously, peptide dilutions (in water) at various concentrations were made. Fungicides were dissolved in 50% acetone and 50% water to make a stock solution of 500 µM, and serial dilutions were made in water as needed. The peptide–conidia or the fungicide–conidia mixture at the ratio of 1:1 (45 µl:45 µl) was added in a 96-well plate and incubated at room temperature for 48 h, after which MICs of the peptides/fungicides were calculated based on microscopy as well as the resazurin cell viability assay ([Velivelli et al., 2020]).

For series [3], the system named is C. sojina Cs350 (fungicide resistant). The experiment in a line: Peptide-fungicide checkerboard assay. The format is cell-based, Cercospora sojina. To be noted: pair azoxystrobin / NCR13_PFV1; Cs350; 4 d; SHAM 60 µg ml–1; microscopy. On the procedure: Synergy between NCR13_PFV1 and the widely used QoI foliar fungicides, azoxystrobin (Sigma-Aldrich, Cat No: 31697), trifloxystrobin (Sigma-Aldrich, Cat No: 46447), and pyraclostrobin (Sigma-Aldrich, Cat No: 33696), were evaluated using checkerboard assays. This assay was performed in a 96-well plate and the preparation of conidial suspension, peptide dilutions, and fungicide dilutions were similar to the in vitro antifungal activity assay described above. The presence of an alternative respiration pathway allows some fungi including C. sojina to germinate even in the presence of a high dose of QoI fungicides in vitro ([Ziogas et al., 1997]; [Zhang et al., 2012]). Therefore, to prevent alternative respiration in C. sojina, salicylhydroxamic acid (SHAM) was added in each reaction at the final concentration of 60 µg ml^–1 ([Zhang et al., 2012]). The conidia, peptide, fungicide, and SHAM were added in a 96-well plate at the v/v ratio of 4:1:1:2 (50 µl:12.5 µl:12.5 µl:25 µl) in the final reaction volume of 100 µl, and the plate was incubated at room temperature for 96 h (4 d). After 96 h, MIC values of the peptide–fungicide combination, peptide alone, and fungicide alone were calculated based on microscopy as well as the resazurin cell viability assay. The fractional inhibitory concentration (FIC) index was calculated using the formula FIC = (MICA+B/MICA) + (MICB+A/MICB), where MICA and MICB are the MIC for peptide (A) alone and fungicide (B) alone, respectively, MICA+B is the MIC for peptide in combination with fungicide (A+B), and MICB+A is the MIC for fungicide in combination with peptide (B+A). The FIC index was interpreted as: synergistic, ≤0.5; additive, >0.5–1.0; indifferent, >1 to <4.0; or antagonistic, ≥4.0.

Series [4] deals with B. cinerea. The series can be described thus: In vitro antifungal activity against B. cinerea. The format is cell-based, Botrytis cinerea.
The subject of series [5] is C. sojina Cs350 cells. The experiment in a line: Uptake and subcellular localization by time-lapse confocal microscopy. The class given is cell-based, Cercospora sojina. To be noted: DyLight550-labeled peptide; nuclear localization mostly at 0.75 μM (0.5× MIC); Hoechst, CMAC and BODIPY co-staining. The procedure: NCR13_PFV1 was labeled with DyLight550 amine-reactive dye following the manufacturer’s instructions (Thermo Scientific), and time-lapse confocal microscopy was performed to measure the uptake and subcellular localization of the peptide in C. sojina Cs350 cells. The nuclear staining dye Hoechst 3352 was used along with DyLight550-NCR13_PFV1 to determine the subcellular localization of NCR13_PFV1 in C. sojina. Conidia grown for 6–8 h were treated with 0.75 µM Dylight550-NCR13_PFV1 and incubated for 30 min, after which 4 µM Hoechst 3352 dye was added for another 15 min. Treated conidia were used to capture z-stacks at specific time intervals using a Leica SP8-X confocal microscope (×63 water immersion objective lens, HC PL Apochromat CS2) in fluorescence and transmitted light mode. The excitation and emission wavelengths of DyLight550-NCR13_PFV1 and Hoechst 3352 were 550 nm, 560–660 nm, and 405 nm, 420–500 nm, respectively. Similarly, to determine the subcellular localization of NCR13_PFV1 in other organelles, C. sojina conidia were also stained with the vacuole-specific dye CMAC and the lipid staining dye BODIPY 493/503 (Thermo Scientific). The excitation and emission wavelengths for CMAC and BODIPY were 405 nm, 420–500 nm, and 493 nm, 505–540 nm, respectively.

Series [6] has as its system protein translation in C. sojina Cs350 germlings. The series can be described thus: In vivo protein translation inhibition assay (puromycin labeling). To be noted: germlings treated 2 h at 6 µM and 12 µM, puromycin 1 mM 3 h; n=3. The class given is cell-based, Cercospora sojina. On the procedure: To assess the translation inhibition of NCR13_PFV1 in C. sojina Cs350, we adapted a recently established puromycin labeling protocol in B. cinerea with minor modifications ([Godwin and Shah, 2025]). Cercospora sojina spores at a concentration of ∼10^5 ml^–1 were inoculated in SFM and cultured for 18 h. The germlings were then treated with NCR13_PFV1 (6 µM and 12 µM) or cycloheximide (50 µg ml^–1) (positive control) for 2 h, followed by the addition of puromycin (1 mM) and incubation for 3 h at 28 °C. After incubation, the germlings were washed three times with sterile water. Total proteins were extracted from germlings using lysis buffer (100 mM HEPES, 5 mM EDTA, 0.1% Triton-X 100, and yeast/fungal protease inhibitor cocktail) and the concentration was estimated using the Pierce BCA Protein Assay Kit (Thermo Scientific). Equal amounts (10 µg) of fungal protein were separated on a 4–20% mini-PROTEAN TGX stain-free protein gel (Bio-Rad, Cat No: 4568094). Western blot analysis was performed using an anti-puromycin antibody (Cell Signaling Technology, Cat No: 40939S), and signal intensities were quantified using Fiji ([Schindelin et al., 2012]).

Entries after “also recorded” stand apart in the source; their conditions may differ. Where no end group is shown, it is not given here.

For the sequence “TKPCQSDKDCKKFACRKPKVPKCINGFCKCVR (disulfide (positions not given here)) [NCR13_PFV1, chickpea nodule-specific cysteine-rich 32 amino acid peptide, disulfide cross-linking variant 1, expressed in Pichia pastoris]”, the “morphology of sprayed plants (growth rate, height, leaf color) compared with water” value in series [1] (bi-weekly from the fourth to the 10th week, at least four plants) is on record as “No morphological difference”. In addition, the “number of pods, 100 seed weight, total seed yield compared with water” value in series [1] (at maturity, Student’s t-test) is given as “no significant differences”. Besides, the “MIC against fungicide-sensitive and -resistant isolates of C. sojina” value in series [2] was in the range of 0.75 to 1.5 µM. Moreover, the “Combination MIC” value in series [3] was found to be 0.75 µM. In addition, the “fold increase in MIC against B. cinerea with increasing iron” value in series [4] (iron from 5 µM to 30 μM) came to 4 fold. In addition, in series [4] (medium with 5 µM iron), the “MIC against B. cinerea at low iron” value is 0.375 µM. In series [4] (medium with 30 μM iron), the “MIC against B. cinerea at high iron” value was found to be 1.5 µM. The subcellular localization result in series [5] was “localized to the nucleus; also recorded: no evidence of co-localization of the peptide with either lipid bodies or the vacuole”. Moreover, the “concentration from which protein translation inhibition was observed” value in series [6] was 6 µM.
